The values below come from US9943500B2, “Methods of treating topical microbial infections” (LUODA PHARMA PTY LIMITED, priority 2013, dated 2018).

≈ marks a conversion by molar mass, not a printed value. Some results are limits rather than exact numbers.

The test system of test [1] is ATCC 49775 reference strain. The test is described as follows: Microdilution time-kill assay (optical density). The following applies: 48 hour period; one, four and eight times the MIC.
Protocol: Time-kill assays were performed according to the M26-A guidelines of the CLSI, with modifications. The test compounds and ampicillin were serial diluted in CAMHB across the rows of a 96 well plate and a bacterial suspension was prepared and added in the same manner as the MIC testing. The 96 well plates were then incubated at 37° C. for 48 hours being removed at specific time points and OD for the positive control wells as well as one, four and eight times the MIC of the compound specific to the strain being tested were assessed using a spectrophotometer at a wavelength of 600 nm. The time points assessed were 0, 1, 2, 4, 8, 12, 24 and 48 hours after the addition of the bacterial suspension to the wells. Each test compound was tested in triplicate while ampicillin was tested in duplicate and this test was independently repeated. […] One strain from each of the categories of Staphylococcus in the isolate collection (methicillin-sensitive, methicillin resistant and coagulase negative) were selected as well as the ATCC reference strain for comparison. These strains were strains MSS 1, MSS 11, MRSA 9 and the ATCC 49775 reference strain.
A further test deals with MRSA 9. Put plainly: Macrodilution time-kill assay (viable counts). The settings on record: 24 hours; all concentrations tested.
The test system of test [2] is methicillin-sensitive and methicillin-resistant strains of Staphylococcus. The test is described as follows: Minimum bactericidal concentration determination, Staphylococcus isolates (Example 1).
Protocol: Following determination of the MIC using the 96 well MIC plate, a variation of the drop plate method was used to determine minimum bactericidal concentration (MBC) for each of the test compounds. These were analysed using samples taken from the MIC plate following incubation. […] Each concentration was pipetted in duplicate with duplicates being pipetted on an inner ring of drops. The plates were incubated at 37° C. overnight and assessed the following day for growth. The MBC was defined as the concentration at which 99.9% of colonies were eradicated, which was visually assessed by a lack of growth on the agar where the drop was placed.
In test [3] the test system is 51 Australian bovine mastitis isolates, primarily S. aureus, S. agalactiae and S. uberis. The test is described as follows: Minimum inhibitory concentration assay, bovine mastitis isolates (Example 3). The settings on record: all 51 isolates; read-out: MIC90. Type of test: cell-based. The source says: Fifty-one dairy bovine mastitis isolates, encompassing a variety of bacterial species, were isolated from milk samples collected from dairy farms in rural South Australia by the University of Adelaide Ambulatory Clinic. Cellular morphology observed from Gram stains and catalase testing was used to differentiate Staphylococcus, Streptococcus and Corynebacterium species from Gram-negative species. Further biochemical testing including coagulase, Lancefield grouping, esculin hydrolysis and CAMP tests were used to identify the isolates to species level. Where biochemical test results were not definitive in identifying species, amplification and sequencing of the 16S ribosomal RNA gene was used to confirm the identity of the isolates.
Minimum inhibitory concentration tests were performed in the manner outlined by the CLSI (CLSI 2012). Test compounds were dispensed into a 96-well microtitre tray containing 90 μl of CAMHB in 90 μl volumes and serial diluted to obtain a concentration gradient ranging from 128 μg/ml to 0.25 μg/ml (see FIG. 24). For Streptococcus species, CAMHB was replaced with a CAMHB supplement with 4% lysed-sheep blood (4% LSB:CAMHB). 4% LSB:CAMHB was prepared by mixing 5 ml sheep blood to 5 ml milliQ water, and repeated freezing at −20° C. and thawing, followed by centrifuged for 20 min at 7000 rpm. 7 ml of the supernatant was removed and added to 93 mL of CAMB.
Bacterial suspensions were prepared by emulsifying fresh colonies obtained from an overnight culture on Sheep Blood Agar (SBA) in 4 mls of 9.1 g/l physiological saline to an optical density read at 600 nm (OD600 nm) between 1.00 and 1.20. Standardised bacterial suspensions were diluted 1:10 in physiological saline and dispensed into all wells, excluding the negative control wells, in 10 μL volumes giving a final concentration of between 4×10^5 and 5×10^5 CFU/mL in each well. 96-well microtitre trays were incubated for 24 hours at 37° C. in 5% CO2 and then assessed both visually and using OD readings from a microplate reader at a wavelength of 600 nm. These tests were performed in duplicate and repeated if discrepancies in MIC values were observed between replicates.
The minimum inhibitory concentration (MIC) was determined to be the lowest concentration of antibiotic that prevented growth of bacteria both visually and using OD readings. MIC values were collated and used to determine the lowest concentration of each compound effective against 50% and 90% of isolates, known as the MIC50 and MIC90 respectively. These values as well as the range of MIC values were then used for direct comparisons between test compounds and for general comparisons with ampicillin.

Test [4] concerns ATCC 49775 reference strain. The test is described as follows: Macrodilution time-kill assay (viable counts). The settings on record: 24 hours; all concentrations tested.
Protocol: (§1) Due to the detection limit of the OD measurements, the time-kill assays were also performed in macrodilution. In 15 mL tubes, 9 mL volumes of the test compounds in CAMHB were prepared at one, four and eight times the MIC concentration and 9 mL volumes of ampicillin were prepared in CAMHB at one and four times the MIC. 1 mL of a 4 to 5×10^6 bacterial suspension (as prepared for MIC testing) was added to each of the tubes as well as a growth control tube containing only 9 mL of CAMHB. These tubes were incubated at 37° C. in an orbital shaker rotating at 100 rpm for 24 hours. At 0, 1, 4, 8, 12 and 24 hours after addition of the bacteria, 100 μL samples were removed from each tube and serial diluted in 9.1 g/L saline solution. The dilutions were then plated in duplicate onto plate count agar and incubated for 24 hours at 37° C. After incubation, viable counts were obtained from the number of colonies visible on the agar and these were used to calculate the number of CFU/mL at each time point. For the macrodilution time-kill analysis, only the ATCC 49775 reference strain and MRSA 9 were assessed in order to further investigate the antibacterial activity against methicillin-resistant strains. These macrodilution time-kill assays were independently repeated and bactericidal activity was defined as a ≥3 log decrease in the number of CFU/mL.

Protocol for MRSA 9: as §1

Take `CC[C@@H](C(=O)[C@@H](C)[C@@H](O)[C@H](C)CCc1ccc(C)c(O)c1C(=O)O)[C@H]1O[C@](CC)([C@H]2CC[C@](O)(CC)[C@H](C)O2)C[C@@H]1C` [LP 1369, Lasalocid]: in test [1], the “growth (optical density) compared to growth control” value is recorded as “prevented the growth”. Moreover, the “decrease in the number of viable bacteria” value (in the test on MRSA 9; in test [4]) was below 3 log10 in each case. In addition, the “bactericidal activity (MBC testing)” value in test [2] (lower concentrations) is “some bactericidal activity in lower concentrations”. The “MBC50 rank among test compounds” value in test [2] (methicillin-sensitive isolates) is given as “lowest MBC50 values”. The “strain type for which bactericidal activity was more consistent” value in test [2] (methicillin-sensitive versus methicillin-resistant strains) is recorded as “more consistently for methicillin-sensitive strains”. Moreover, the MIC90 – broadly, an inhibitory concentration at the 90% level, which refers to growth in some studies and to a panel of isolates in others – in test [3] was 4 µg/mL (≈ 6.77 µM).
